Data reported in ChEMBL document CHEMBL4725372, “Rational Design of Suprastat: A Novel Selective Histone Deacetylase 6 Inhibitor with the Ability to Potentiate Immunotherapy in Melanoma Models” (J Med Chem, 2020).
Active and inactive are the calls of the source. The rule behind the calls is not given here.

How the values were obtained:
HEK293 [1] = experiment: Selectivity index, ratio of IC50 for human HDAC1 expressed in HEK293/T17 cells (unknown origin) to human HDAC6 expressed in HEK293/T17 cells; type: cell-based
HEK293 [2] = experiment: Selectivity index, ratio of IC50 for human HDAC3 expressed in HEK293/T17 cells (unknown origin) to human HDAC6 expressed in HEK293/T17 cells; type: cell-based
HEK293 [3] = experiment: Selectivity index, ratio of IC50 for human HDAC7 expressed in HEK293/T17 cells (unknown origin) to human HDAC6 expressed in HEK293/T17 cells; type: cell-based
[4] = Half life in SGF by LC-MS/MS analysis; type: ADME
[5] = Protein binding in human plasma at 10 uM incubated for 1 hr by LC-MS/MS analysis; type: ADME, cell-free; conditions: read-out: PPB (converted)
[6] = target: T1, Protein deacetylase HDAC6 (Homo sapiens) (UniProt Q9UBN7); experiment: Inhibition of human HDAC6 in human WM164 cells increase in acetylated alpha-tubulin levels at 0.1 to 10 uM by immunoblot analysis; type: cell-based; conditions: dose microM 0.1-10
T1 sequence (whole entry): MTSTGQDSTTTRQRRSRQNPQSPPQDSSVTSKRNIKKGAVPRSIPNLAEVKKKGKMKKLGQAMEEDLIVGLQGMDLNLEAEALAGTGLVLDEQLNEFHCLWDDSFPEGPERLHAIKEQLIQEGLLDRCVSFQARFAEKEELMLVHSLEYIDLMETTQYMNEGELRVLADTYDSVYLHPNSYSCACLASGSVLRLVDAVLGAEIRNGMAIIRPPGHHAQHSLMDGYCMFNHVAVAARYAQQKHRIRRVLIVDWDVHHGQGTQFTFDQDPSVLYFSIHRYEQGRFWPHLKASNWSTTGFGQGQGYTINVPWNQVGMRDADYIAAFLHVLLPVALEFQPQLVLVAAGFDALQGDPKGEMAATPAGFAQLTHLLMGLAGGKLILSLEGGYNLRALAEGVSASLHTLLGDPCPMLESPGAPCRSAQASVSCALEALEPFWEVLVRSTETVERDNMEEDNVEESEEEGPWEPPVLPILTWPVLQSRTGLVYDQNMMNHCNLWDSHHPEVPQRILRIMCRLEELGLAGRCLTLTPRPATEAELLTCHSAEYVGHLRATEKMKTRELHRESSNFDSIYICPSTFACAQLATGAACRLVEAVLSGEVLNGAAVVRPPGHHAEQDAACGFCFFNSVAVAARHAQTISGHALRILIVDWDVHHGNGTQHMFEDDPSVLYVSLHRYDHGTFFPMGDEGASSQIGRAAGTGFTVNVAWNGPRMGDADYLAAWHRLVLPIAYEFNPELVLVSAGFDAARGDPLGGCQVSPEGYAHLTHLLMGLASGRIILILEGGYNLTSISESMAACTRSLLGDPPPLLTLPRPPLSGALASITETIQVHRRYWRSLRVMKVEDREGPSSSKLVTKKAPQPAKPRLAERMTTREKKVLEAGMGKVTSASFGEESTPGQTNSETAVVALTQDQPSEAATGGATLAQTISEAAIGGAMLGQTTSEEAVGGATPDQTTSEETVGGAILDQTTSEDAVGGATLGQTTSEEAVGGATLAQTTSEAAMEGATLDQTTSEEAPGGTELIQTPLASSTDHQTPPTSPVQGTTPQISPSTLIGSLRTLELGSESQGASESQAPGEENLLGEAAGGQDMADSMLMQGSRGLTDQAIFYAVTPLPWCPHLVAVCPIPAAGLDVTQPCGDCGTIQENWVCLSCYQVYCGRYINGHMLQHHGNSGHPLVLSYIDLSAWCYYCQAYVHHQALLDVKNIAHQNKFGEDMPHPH

[7] = target: T2, Protein deacetylase HDAC6 (Mus musculus) (UniProt Q9Z2V5); experiment: Inhibition of human HDAC6 in mouse RAW264.7 cells assessed as increase in acetylated alpha-tubulin levels at 1 to 10 uM by immunoblot analysis; type: cell-based; conditions: Macrophage, dose microM 1-10
T2 sequence (whole entry): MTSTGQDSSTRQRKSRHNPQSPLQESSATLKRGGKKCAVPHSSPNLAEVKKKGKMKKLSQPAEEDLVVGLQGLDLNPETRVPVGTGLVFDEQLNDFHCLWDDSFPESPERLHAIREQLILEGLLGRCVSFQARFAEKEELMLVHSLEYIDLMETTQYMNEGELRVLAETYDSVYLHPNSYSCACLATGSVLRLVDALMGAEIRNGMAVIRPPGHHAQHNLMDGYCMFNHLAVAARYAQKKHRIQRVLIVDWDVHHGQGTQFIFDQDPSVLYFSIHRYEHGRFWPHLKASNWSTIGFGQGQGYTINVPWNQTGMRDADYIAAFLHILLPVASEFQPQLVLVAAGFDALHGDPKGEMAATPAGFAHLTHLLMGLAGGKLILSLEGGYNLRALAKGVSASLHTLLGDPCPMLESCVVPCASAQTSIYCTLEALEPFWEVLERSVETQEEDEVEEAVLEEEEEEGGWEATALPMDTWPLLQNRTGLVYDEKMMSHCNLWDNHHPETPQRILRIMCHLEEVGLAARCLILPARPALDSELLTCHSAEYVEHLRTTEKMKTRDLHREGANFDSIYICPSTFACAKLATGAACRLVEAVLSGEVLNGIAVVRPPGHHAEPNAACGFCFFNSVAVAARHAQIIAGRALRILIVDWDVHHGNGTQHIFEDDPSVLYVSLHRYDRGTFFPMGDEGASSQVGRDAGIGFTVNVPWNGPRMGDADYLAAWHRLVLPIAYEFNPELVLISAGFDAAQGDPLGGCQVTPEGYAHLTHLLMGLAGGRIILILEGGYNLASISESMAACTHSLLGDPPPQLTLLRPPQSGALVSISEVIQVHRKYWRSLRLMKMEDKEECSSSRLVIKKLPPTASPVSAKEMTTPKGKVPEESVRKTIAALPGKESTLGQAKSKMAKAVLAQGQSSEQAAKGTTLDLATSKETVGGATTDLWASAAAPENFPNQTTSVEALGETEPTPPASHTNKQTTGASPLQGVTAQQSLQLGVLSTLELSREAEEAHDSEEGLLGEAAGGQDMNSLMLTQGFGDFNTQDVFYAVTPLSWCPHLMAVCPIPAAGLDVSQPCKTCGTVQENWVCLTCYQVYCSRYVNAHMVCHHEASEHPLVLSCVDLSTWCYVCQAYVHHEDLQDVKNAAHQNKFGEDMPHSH

[8] = target: T1, Protein deacetylase HDAC6 (Homo sapiens); experiment: Inhibition of human HDAC6 in human WM164 cells assessed as decrease in STAT3 Y705 phosphorylation at 5 uM pre-incubated before IL6 stimulation for 20 mins by immunoblot analysis; type: cell-based
Mus musculus [9] = experiment: Immunomodulatory activity in C57BL/6 mouse harboring mouse SM1 cells assessed as effect on CD4+ T cells at 25 mg/kg, ip dosed 5 days per week by flow cytometry; type: functional, organism-based; conditions: time 5.0 day/week
Mus musculus [10] = experiment: Immunomodulatory activity in C57BL/6 mouse harboring mouse SM1 cells assessed as effect on immunosuppressive T-regs at 25 mg/kg, ip dosed 5 days per week before starting 15 mg/kg, ip anti-PD1 immune checkpoint blockade therapy by flow cytometry; type: functional, organism-based; conditions: time 5.0 day/week

half-life [4]: > 5 h
fraction unbound at 1 h, 10 µM [5]: 0.981
inhibition [6]: Dose-dependent effect
inhibition [7]: Dose-dependent effect
inhibition [8]: Active
SMILES: NCc1ccc(NC(=O)N(CCCCO)Cc2ccc(C(=O)NO)cc2)cc1
Ratio IC50 (HEK293 [1]): 293
Ratio IC50 (HEK293 [2]): 880
Ratio IC50 (HEK293 [3]): 3680
Activity (Mus musculus [9]): inactive
Activity (Mus musculus [10]): inactive
